Data reported in ChEMBL document CHEMBL1146643, “Potential hypotensive agents: synthesis and hypotensive activity of oxime ethers derived from 1-naphthoxepines and related compounds” (2004).

How the values were obtained:
Format in all cases: functional
Conditions in all cases: route intravenous
Felis catus [1] = assay: Percent of maximum effect in anaesthetized cat at a dose of 1 mg/kg intravenously
Felis catus [2] = assay: Percent of maximum effect in anaesthetized cat at a dose of 5 mg/kg intravenously
Felis catus [3] = assay: Fall of blood pressure in anaesthetized cat at a dose of 1 mg/kg intravenously
Felis catus [4] = assay: Fall of blood pressure in anaesthetized cat at a dose of 5 mg/kg intravenously

With CC(C)NCC(O)CO/N=C1\CCCOc2ccc3ccccc3c21 (stereo not drawn) the Max effect (Felis catus [1]) was 7%, the Max effect (Felis catus [2]) was 70% and the “Decrease in blood pressure” value (Felis catus [3]) was 10 mmHg. For the same compound, the “Decrease in blood pressure” value (Felis catus [4]) was 80 mmHg.

CC(C)(C)NCC(O)CO/N=C1\CCCOc2ccc3ccccc3c21 (stereo not drawn) was tested, and the Max effect (Felis catus [1]) was 21%, the Max effect (Felis catus [2]) was 41% and the “Decrease in blood pressure” value (Felis catus [3]) was 18 mmHg. For the same compound, the “Decrease in blood pressure” value (Felis catus [4]) was 50 mmHg.

For CCCNCC(O)CO/N=C1\CCCOc2c1ccc1ccccc21 (stereo not drawn), the Max effect (Felis catus [1]) was 21%, the Max effect (Felis catus [2]) was 50% and the “Decrease in blood pressure” value (Felis catus [3]) was 20 mmHg. The “Decrease in blood pressure” value (Felis catus [4]) was 60 mmHg.

With CCCNCC(O)CO/N=C1\CCCOc2ccc3ccccc3c21 (stereo not drawn) the Max effect (Felis catus [1]) was 17%, the Max effect (Felis catus [2]) was 17% and the “Decrease in blood pressure” value (Felis catus [3]) was 18 mmHg. The “Decrease in blood pressure” value (Felis catus [4]) was 16 mmHg.

With CC(C)(C)NCC(O)CO/N=C1\CCCOc2c1ccc1ccccc21 (stereo not drawn) the Max effect (Felis catus [1]) was 40%, the Max effect (Felis catus [2]) was 55% and the “Decrease in blood pressure” value (Felis catus [3]) was 60 mmHg. For the same compound, the “Decrease in blood pressure” value (Felis catus [4]) was 80 mmHg.

With CC(C)NCC(O)CO/N=C1\CCCOc2c1ccc1ccccc21 (stereo not drawn) the Max effect (Felis catus [1]) was 14%, the Max effect (Felis catus [2]) was 88% and the “Decrease in blood pressure” value (Felis catus [3]) was 20 mmHg. For the same compound, the “Decrease in blood pressure” value (Felis catus [4]) was 110 mmHg.

With CC(C)NCC(O)COc1cccc2ccccc12 (stereo not drawn) [PROPRANOLOL] the Max effect (Felis catus [1]) was 35%, the Max effect (Felis catus [2]) was 41% and the “Decrease in blood pressure” value (Felis catus [3]) was 46 mmHg. The “Decrease in blood pressure” value (Felis catus [4]) was 50 mmHg.
